Type in all cases: functional
Test [1] deals with B16. Put plainly: Compound was evaluated for lung metastasis produced by 500 ug/mouse i.v. injection of B16-BL6 melanoma.; Range 44-154.
For test [2], the species on record is Homo sapiens. Briefly: Compound was evaluated for inhibition of ADP-induced human platelet aggregation at concentration 1 mg/mL.
The subject of test [3] is B16. Put plainly: Compound was evaluated for lung metastasis produced by 500 ug/mouse i.v. injection of B16-BL6 melanoma,; Range 19-63.
The species entered for test [4] is Homo sapiens. Put plainly: Compound was evaluated for inhibition of ADP-induced human platelet aggregation.
In test [5] the test system is B16. Briefly: Compound was evaluated for lung metastasis produced by 500 ug/mouse i.v. injection of B16-BL6 melanoma. Range 4-36.

For orientation: inhibition means the percentage by which the read-out fell short of the control. Read a low inhibition as a weak effect. Take `N=C(N)NCCC[C@H](N)C(=O)NCC(=O)N[C@@H](CC(=O)O)C(=O)N[C@@H](CO)C(=O)O`: the “No. of lung metastasis” value in the test with B16 [1] was 93. For the same compound, the inhibition at 1000 µg/mL in the test listed under Homo sapiens [2] was 100%.

Regarding `N=C(N)NCCC[C@@H](NC(=O)CC(=O)N[C@@H](CC(=O)O)C(=O)O)C(=O)O`, in the test listed under Homo sapiens [2], at 1000 µg/mL the inhibition was 53%. For the same compound, the “No. of lung metastasis” value with B16 [3] amounted to 38.

The IC50 is the midpoint of a concentration-inhibition curve. Low readings indicate greater potency in that assay, high ones weaker potency in that assay. Turning to `N=C(N)NCCC[C@H](NC(=O)CC(=O)N[C@@H](CC(=O)O)C(=O)O)C(=O)O`, the IC50 in the test listed under Homo sapiens [4] came to 2400 µM. The same compound showed an inhibition at 1000 µg/mL in the test listed under Homo sapiens [2] of 57%. Moreover, the “No. of lung metastasis” value with B16 [5] amounted to 19.

The values are drawn from ChEMBL document CHEMBL1128928, “Synthesis and biological properties of partially modified retro and retro-inverso pseudo peptides of arg-gly-asp (RGD)” (Bioorg Med Chem Lett, 1996).
